EC50 data for four compounds are collected here from paper PMC12448638, “The association between diet estrogenicity in exotic felids and poor spermatozoa quality in tigers (Panthera tigris)” (Biology of Reproduction, 2025).

pEC50: −log10 of the molar value. Read-outs that look alike come from different tables or passages of the source.

Assay in all cases: 3xERE luciferase reporter activation, HEK293
(In general: In a reporter assay the amount or activity of a reporter protein is the signal.)

The target in one experiment is T1, SL ERβ (Panthera uncia, UniProt Z9GFH5XYU7).
T1 construct: full-length ESR2 ORF (1653 bp, about 550 aa), not codon-optimised, pcDNA3.1+, HEK293; residues S31, S40, I138, A147, G361, R433, Q550
The class given is cell-based. The conditions noted are these: agonist; 24 h, 37 °C; normalised to β-gal and maximal E2 activation; read-out: SL ER⍺ / EC50.

Another experiment deals with T2, ST ERβ.
T2 construct: gene ESR2; full-length ESR2 ORF (1653 bp, about 550 aa), codon-optimised, pcDNA3.1+, HEK293; residues S31, S40, V138, A147, E361, R433, E550
It counts as cell-based, Panthera tigris sumatrae. The following applies: agonist, 24 h, 37 °C.

The target in a further experiment is T3, ST ERα (Panthera tigris, UniProt Z9XQL7S1Y6).
T3 construct: full-length ESR1 ORF (1788 bp, about 595 aa), codon-optimised, pcDNA3.1+, HEK293; residues S53, P76, T496, S585
T3 sequence (Z9XQL7S1Y6 1-595): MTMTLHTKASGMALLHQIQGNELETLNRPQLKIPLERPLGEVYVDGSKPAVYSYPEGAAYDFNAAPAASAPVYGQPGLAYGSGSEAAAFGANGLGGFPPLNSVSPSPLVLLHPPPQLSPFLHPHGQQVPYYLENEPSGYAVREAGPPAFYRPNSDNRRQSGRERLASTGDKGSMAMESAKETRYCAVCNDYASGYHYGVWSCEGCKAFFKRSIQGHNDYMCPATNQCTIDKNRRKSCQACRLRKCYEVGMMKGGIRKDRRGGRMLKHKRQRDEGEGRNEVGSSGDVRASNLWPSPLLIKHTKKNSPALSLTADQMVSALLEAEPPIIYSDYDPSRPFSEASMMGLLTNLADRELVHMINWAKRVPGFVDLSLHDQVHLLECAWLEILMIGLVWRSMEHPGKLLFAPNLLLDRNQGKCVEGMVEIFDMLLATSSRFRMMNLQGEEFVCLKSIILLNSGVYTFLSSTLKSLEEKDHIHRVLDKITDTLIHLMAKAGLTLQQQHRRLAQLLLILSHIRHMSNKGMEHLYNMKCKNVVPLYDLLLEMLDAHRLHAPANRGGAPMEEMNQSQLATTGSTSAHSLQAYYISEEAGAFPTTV
It counts as cell-based.

The subject of the next experiment is T4, SL ERα.
T4 construct: gene ESR1; full-length ESR1 ORF (1788 bp, about 595 aa), codon-optimised, pcDNA3.1+, HEK293; residues S53, S76, T496, T585
The class given is cell-based, Panthera uncia. The conditions noted are these: agonist, 24 h, 37 °C, corrected for constitutive activity.

[1] abbreviates: normalised to β-gal and maximal E2 activation, read-out: ST ER⍺ / EC50.
Where [2] appears, read: normalised to β-gal and maximal E2 activation, read-out: SL ER⍺ / EC50.
The mark [3] stands for this setting: normalised to β-gal, read-out: EC50.

Consider `O=c1oc2cc(O)ccc2c2oc3cc(O)ccc3c12` [COUM, coumestrol], for which the pEC50 at SL ERβ is 7.59; in the experiment with ST ERβ (setting [1]), 8.09; at ST ERα (read-out: ST ER⍺ / EC50) it was 6.88; in the experiment with SL ERα (setting [2]), 7.38.

Consider `O=c1c(-c2ccc(O)cc2)coc2cc(O)ccc12` [DAID, daidzein], for which, in the experiment with ST ERβ (setting [1]), the pEC50 was 6.10.

Turning to `C[C@]12CC[C@@H]3c4ccc(O)cc4CC[C@H]3[C@@H]1CC[C@@H]2O` [E2, 17β-estradiol], the pEC50 with ST ERβ (setting [3]) was 10.39; at ST ERα (read-out: EC50), 11.21; in the experiment with SL ERα (setting [3]), 11.01.

As for `O=c1c(-c2ccc(O)cc2)coc2cc(O)cc(O)c12` [GEN, genistein], the pEC50 on SL ERβ is 6.54; in the experiment with ST ERβ (setting [1]), 7.65; on ST ERα (read-out: ST ER⍺ / EC50), 5.72; with SL ERα (setting [2]), 5.78.
